Measured values published in patent US20240279281A1, “Peptide Inhibitors of Interleukin-23 Receptor” (Janssen Pharmaceutica NV, priority 2023, published 2024).
Where a name gives a salt, the structure may show the parent alone. Read-outs that look alike come from different tables or passages of the source. Starred links: 1 amine or outer side, 2 acyl side, 3 side chain; linkers in the order of their positions; H or OH if unused. Positions of bridges follow the written chain, without caps; N, C: chain ends. Non-standard residues stand in square brackets, D forms with d. Residues, ends and D or L forms follow the SMILES beside them. *: point of attachment. Trp(7-(3-AcNH-Ph)) = CC(=O)Nc1cccc(-c2cccc3c(C[C@H](N)C(=O)O)c[nH]c23)c1; X12 = O=C([C@H](Cc1ccc2cc(F)ccc2c1)N[*:1])[*:2]; 2Nal(6-OH) = N[C@@H](Cc1ccc2cc(O)ccc2c1)C(=O)O; Trp(7-Me) = Cc1cccc2c(C[C@H](N)C(=O)O)c[nH]c12; d(hLys(Me3)) = C[N+](C)(C)CCCCC[C@@H](N)C(=O)O; Hexanoyl(6-NMe3+) = C[N+](C)(C)CCCCCC(=O)*; AEF = NCCOc1ccc(C[C@H](N)C(=O)O)cc1; 3Pal = N[C@@H](Cc1cccnc1)C(=O)O; Lys(Me) = CNCCCC[C@H](N)C(=O)O; Pen = CC(C)(S)[C@H](N)C(=O)O; Thp = NC1(C(=O)O)CCOCC1; Me2NCH2CH2 = CN(C)CC*; Tfa = O=C(C(F)(F)F)*; Sar = CNCC(=O)O

How the values were obtained:
IL-23R = target: T1, IL-23R (Homo sapiens, UniProt Q5VWK5); assay: IL23R Reporter Assay; format: cell-based; settings: HEK293 cells containing IL-23R, IL-12Rβ1 and STAT-inducible luciferase reporter; 10 ng/mL IL-23; 5 h; read-out: IC50
T1 construct: host or cells: HEK293
T1 sequence (Q5VWK5 24-629): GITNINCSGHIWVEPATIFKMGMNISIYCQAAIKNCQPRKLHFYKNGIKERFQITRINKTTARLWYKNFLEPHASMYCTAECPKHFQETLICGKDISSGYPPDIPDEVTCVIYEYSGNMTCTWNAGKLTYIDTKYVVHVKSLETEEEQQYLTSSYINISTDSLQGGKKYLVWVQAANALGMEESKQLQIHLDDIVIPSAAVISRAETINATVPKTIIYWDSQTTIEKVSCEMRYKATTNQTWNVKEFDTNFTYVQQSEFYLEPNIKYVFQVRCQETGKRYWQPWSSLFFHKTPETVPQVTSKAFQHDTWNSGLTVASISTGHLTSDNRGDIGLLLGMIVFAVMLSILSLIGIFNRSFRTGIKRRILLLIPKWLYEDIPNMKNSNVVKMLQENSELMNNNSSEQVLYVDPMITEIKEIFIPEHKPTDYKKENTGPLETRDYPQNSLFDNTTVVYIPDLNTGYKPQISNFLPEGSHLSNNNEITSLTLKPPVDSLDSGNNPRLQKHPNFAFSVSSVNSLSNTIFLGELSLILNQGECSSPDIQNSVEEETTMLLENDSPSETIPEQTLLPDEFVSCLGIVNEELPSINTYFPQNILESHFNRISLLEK
Description: Compounds were serially diluted in 100% (v/v) DMSO) and plated using an Echo acoustic dispenser (Labcyte) into 1536-well non-treated black assay plates (Corning #9146). […] After 5 h at 37° C., 5% CO2, 95% relative humidity, cells were placed at 20° C. and treated with BioGlo reagent (Promega) according to the Manufacturer's instructions. Luminescence was measured on a Pherastar FSX (BMG LabTech).

[1] = disulfide bond, 20-membered ring
[2] = target: T2, IL-23-stimulated phosphorylated STAT3 in peripheral blood mononuclear cells (PBMCs) (Homo sapiens, UniProt Q5VWK5); assay: PBMC pSTAT3 Assay; format: cell-based; settings: PBMCs from healthy donors, IL-23 5 ng/mL, 30 minutes, read-out: PBMC pSTAT3 IC50
T2 sequence (Q5VWK5 24-629): T1 sequence (Q5VWK5 24-629)
Description: Cryopreserved peripheral blood mononuclear cells (PBMCs) from healthy donors were thawed and washed twice in ImmunoCult-XF T cell expansion medium (XF-TCEM) supplemented with CTL anti-aggregate wash. The cells were counted, resuspended at 2-6×10^5 cells per mL XF-TCEM supplemented with penicillin/streptomycin and 100 ng/mL IL-1β (BioLegend, 579404), and cultured in tissue culture flasks coated with anti-CD3 (eBioscience, 16-0037-85 or BD Pharmingen, 555329) at 37° C. in 5% CO2. On day 4 of culture, PBMCs were collected, washed twice in RPMI-1640 supplemented with 0.1% BSA (RPMI-BSA), and incubated in RPMI-BSA in upright tissue culture flasks for ˜4 hours at 37° C. in 5% CO2. Following this ‘starvation,’ a total of 6×10^4 cells in 30 μL RPMI-BSA was transferred into each well of a 384-well plate pre-spotted with peptide or DMSO. The cells were incubated for 30 minutes prior to the addition of IL-23 at a final concentration of 5 ng/mL. The cells were stimulated with cytokine for 30 minutes at 37° C. in 5% CO2, transferred onto ice for 10 minutes, and lysed. Cell lysates were stored at −80° C. until phosphorylated STAT3 was measured using the phospho-STAT panel kit (Meso Scale Discovery, K15202D).

For `CC(=O)NCCCC[C@@H]1NC(=O)[C@H](Cc2c[nH]c3c(C)cccc23)NC(=O)[C@H]([C@@H](C)O)NC(=O)[C@H](CC(N)=O)NC(=O)[C@@H](NC(=O)[C@@H](CCCNC(=N)N)NC(C)=O)C(C)(C)SSC(C)(C)[C@@H](C(=O)N[C@@H](Cc2ccc(OCCN)cc2)C(=O)N[C@@H](Cc2ccc3cc(F)ccc3c2)C(=O)NC2(C(=O)N[C@@H](CCC(=O)O)C(=O)N[C@@H](CC(N)=O)C(=O)N[C@@H](Cc3cccnc3)C(=O)N(C)CC(N)=O)CCOCC2)NC1=O` [SEQ ID NO: 407, MeCO-r-Pen(3)-N-T-7MeW-K(Ac)-Pen(3)-AEF-6F2Nal-THP-E-N-3Pya-Sar-CONH2] (Ac-[dR][Pen]NT[Trp(7-Me)]K(Ac)[Pen][AEF][X12][Thp]EN[3Pal][Sar]-NH2; disulfide 2-7), the IC50 (IL-23R) was under 10 nM, the ring closure, yield after HPLC ([1]; from Ac-dArg-Pen-Asn-Thr-7MeTrp-Lys(Ac)-Pen-AEF-6F2Nal-THP-Glu-Asn-3Pya-Sar-NH2, I2/MeOH, 20% MeCN/H2O, 0.85 mM) was 22.1% and the IC50 [2] was 0.01 to 0.1 nM.
`CC(=O)N[C@H](CCCCC[N+](C)(C)C)C(=O)N[C@@H]1C(=O)N[C@@H](CC(=O)N(C)C)C(=O)N[C@@H]([C@@H](C)O)C(=O)N[C@@H](Cc2c[nH]c3c(C)cccc23)C(=O)N[C@@H](CCCCN(C)C(C)=O)C(=O)N[C@H](C(=O)N[C@@H](Cc2ccc(OCCN)cc2)C(=O)N[C@@H](Cc2ccc3cc(O)ccc3c2)C(=O)NC2(C(=O)N[C@@H](CCC(=O)O)C(=O)N[C@@H](CC(N)=O)C(=O)N[C@@H](Cc3cccnc3)C(=O)N(C)CC(=O)N(C)C)CCOCC2)C(C)(C)SSC1(C)C` [SEQ ID NO: 389, MeCO-hk(Me)3-Pen(3)-N(N(Me)2)-T-7MeW-K(NMeAc)-Pen(3)-AEF-6OH2Nal-THP-E-N-3Pya-Sar-CON(Me)2] (Ac-[d(hLys(Me3))][Pen]D(NMe2)T[Trp(7-Me)][Lys(Me)](Ac)[Pen][AEF][2Nal(6-OH)][Thp]EN[3Pal][Sar]-NMe2; disulfide 2-7) gave an IC50 (IL-23R) of under 10 nM, a ring closure, yield after HPLC ([1]; from Ac-dhLys(Me3)-Pen-Asn(NMe2)-Thr-7MeTrp-Lys(NMeAc)-Pen-AEF-6OH2Nal-THP-Glu-Asn-3Pya-Sar-NMe2?, I2/MeOH, 20% MeCN/H2O, 0.92 mM) of 11% and an IC50 [2] of under 0.01 nM.
Compound `Cc1cccc2c(C[C@@H]3NC(=O)[C@H]([C@@H](C)O)NC(=O)[C@H](CC(=O)N(C)C)NC(=O)[C@@H](NC(=O)[C@@H](CCCCNC(=O)CCCCC[N+](C)(C)C)NC(=O)C(F)(F)F)C(C)(C)SSC(C)(C)[C@@H](C(=O)N[C@@H](Cc4ccc(OCCN(C)C)cc4)C(=O)N[C@@H](Cc4ccc5cc(O)ccc5c4)C(=O)NC4(C(=O)N[C@@H](CCC(=O)N(C)C)C(=O)N[C@@H](CC(N)=O)C(=O)N[C@@H](Cc5cccnc5)C(=O)N(C)CC(=O)N(C)C)CCOCC4)NC(=O)[C@H](CCC(=O)N(C)C)NC3=O)c[nH]c12` [SEQ ID NO: 405, CF3CO-k(5cpa)-Pen(3)-N(N(Me)2)-T-7MeW-Q(N(Me)2)-Pen(3)-AEF(N(Me)2)-6OH2Nal-THP-Q(N(Me)2)-N-3Pya-Sar-CON(Me)2] (Tfa-[dK](Hexanoyl(6-NMe3+))[Pen]D(NMe2)T[Trp(7-Me)]E(NMe2)[Pen]Y(Me2NCH2CH2)[2Nal(6-OH)][Thp]E(NMe2)N[3Pal][Sar]-NMe2; disulfide 2-7) has an IC50 (IL-23R) of under 10 nM, a ring closure, yield after HPLC ([1]; from CF3CO-dLys(5cpa)-Pen-Asn(NMe2)-Thr-7MeTrp-Gln(NMe2)-Pen-AEF(NMe2)-6OH2Nal-THP-Gln(NMe2)-Asn-3Pya-Sar-NMe2, I2/MeOH, 20% MeCN/H2O, 0.51 mM) of 13.4% and an IC50 [2] of 0.01 to 0.1 nM.
With `CC(=O)NCCCC[C@@H]1NC(=O)[C@H](Cc2c[nH]c3c(-c4cccc(NC(C)=O)c4)cccc23)NC(=O)[C@H]([C@@H](C)O)NC(=O)[C@H](CC(N)=O)NC(=O)[C@@H](NC(=O)[C@@H](CCCNC(=N)N)NC(C)=O)C(C)(C)SSC(C)(C)[C@@H](C(=O)N[C@@H](Cc2ccc(OCCN)cc2)C(=O)N[C@@H](Cc2ccc3cc(O)ccc3c2)C(=O)NC2(C(=O)N[C@@H](CCC(=O)O)C(=O)N[C@@H](CC(N)=O)C(=O)N[C@@H](Cc3cccnc3)C(=O)N(C)CC(N)=O)CCOCC2)NC1=O` [compound 287, MeCO-r-Pen(3)-N-T-7(3NAcPh)W-K(Ac)-Pen(3)-AEF-6OH2Nal-THP-E-N-3Pya-Sar-CONH2] (Ac-[dR][Pen]NT[Trp(7-(3-AcNH-Ph))]K(Ac)[Pen][AEF][2Nal(6-OH)][Thp]EN[3Pal][Sar]-NH2; disulfide 2-7) the IC50 (IL-23R) was under 10 nM, the ring closure, yield after HPLC ([1]; from Ac-dArg-Pen-Asn-Thr-7(3NAcPh)Trp-Lys(Ac)-Pen-AEF-6OH2Nal-THP-Glu-Asn-3Pya-Sar-NH2, I2/MeOH, 20% MeCN/H2O, 0.8 mM) was 26% and the IC50 [2] was 0.01 to 0.1 nM.
With `CC(=O)NCCCC[C@@H]1NC(=O)[C@H](Cc2c[nH]c3c(C)cccc23)NC(=O)[C@H]([C@@H](C)O)NC(=O)[C@H](CC(N)=O)NC(=O)[C@@H](NC(=O)[C@@H](CCCNC(=N)N)NC(C)=O)C(C)(C)SSC(C)(C)[C@@H](C(=O)N[C@@H](Cc2ccc(OCCN)cc2)C(=O)N[C@@H](Cc2ccc3cc(O)ccc3c2)C(=O)NC2(C(=O)N[C@@H](CCC(=O)O)C(=O)N[C@@H](CC(N)=O)C(=O)N[C@@H](Cc3cccnc3)C(=O)N(C)CC(=O)N[C@@H](CCCCNC(=O)COCCOCCNC(=O)COCCOCCNC(=O)CC[C@H](NC(=O)CCCCCCCCCCCCCCCCC(=O)O)C(=O)O)C(N)=O)CCOCC2)NC1=O` the ring closure, yield after HPLC ([1]; from Ac-dArg-Pen-Asn-Thr-7MeTrp-Lys(Ac)-Pen-AEF-6OH2Nal-THP-Glu-Asn-3Pya-Sar-Lys(PEG2PEG2gEC18OH)-NH2, I2/MeOH, 20% MeCN/H2O, 0.857 mM) was 12.1%.
Work on `CC(=O)NCCCC[C@@H]1NC(=O)[C@H](Cc2c[nH]c3c(C)cccc23)NC(=O)[C@H]([C@@H](C)O)NC(=O)[C@H](CC(N)=O)NC(=O)[C@@H](NC(=O)[C@@H](CCCNC(=N)N)NC(C)=O)C(C)(C)SSC(C)(C)[C@@H](C(=O)N[C@@H](Cc2ccc(OCCN)cc2)C(=O)N[C@@H](Cc2ccc3cc(O)ccc3c2)C(=O)NC2(C(=O)N[C@@H](CCC(=O)O)C(=O)N[C@@H](CC(N)=O)C(=O)N[C@@H](Cc3cccnc3)C(=O)N(C)CC(N)=O)CCOCC2)NC1=O` yielded a ring closure, yield after HPLC ([1]; from Ac-dArg-Pen-Asn-Thr-7MeTrp-Lys(Ac)-Pen-AEF-6OH2Nal-THP-Glu-Asn-3Pya-Sar-NH2) of 10.3%.
“MeCO-k(d)-Pen(3)-N-T-7MeW-K(Ac)-Pen(3)-AEF-6OH2Nal-THP-E-N-3Pya-Sar-CONH2” gave a ring closure, yield after HPLC ([1]; I2/AcOH, MeCN/H2O, 2.19 mM) of 31%.
Compound “MeCO-Pen(3)-N(N(Me)2)-T-7MeW-Dab(NMecarn)-Pen(3)-AEF-6OH2Nal-THP-Dab(NMecarn)-N-3Pya-Sar-CON(Me)2” has a ring closure, yield after HPLC ([1]; I2/AcOH, MeCN/H2O, 2.09 mM) of 23%.
`Cc1cccc2c(C[C@@H]3NC(=O)[C@H]([C@@H](C)O)NC(=O)[C@H](CC(N)=O)NC(=O)[C@@H](NC(=O)CCOCCOCC[N+](C)(C)C)C(C)(C)SSC(C)(C)[C@@H](C(=O)N[C@@H](Cc4ccc(OCCN)cc4)C(=O)N[C@@H](Cc4ccc5cc(O)ccc5c4)C(=O)NC4(C(=O)N[C@@H](CCCCN(C)C(=O)CCOCCOCC[N+](C)(C)C)C(=O)N[C@@H](CC(N)=O)C(=O)N[C@@H](Cc5cccnc5)C(=O)N(C)CC(N)=O)CCOCC4)NC(=O)[C@H](CCCCN(C)C(=O)CCOCCOCC[N+](C)(C)C)NC3=O)c[nH]c12` gave a ring closure, yield after HPLC ([1]; from cPEG3aCO-Pen-Asn-Thr-7MeTrp-Lys(NMecPEG3a)-Pen-AEF-6OH2Nal-THP-Lys(NMecPEG3a)-Asn-3Pya-Sar-NH2, I2/MeOH, 20% MeCN/H2O, 0.6 mM) of 11.7%.
